“Also recorded” adds a separate entry of the source.
Experiments:
Assay type in all cases: cell-based, human
[1] = system: ABCA1; assay: Bodipy lipid deposits in CC-HS treated Stargardt iRPE with ABCA1 activator; conditions: 10 μM
From the text: 115(36): p. 9014-9019]. […] To further understand the ABCA4 driven mechanism in disease pathogenesis, this example focuses on ABCA1- an ABCA4 homolog, involved in cholesterol transport. […] Journal of Biological Chemistry, 2013. 288(48): p. 34414-34426, Tanaka, A. R., et al., Human ABCA1 contains a large amino-terminal extracellular domain homologous to an epitope of Sjögren's Syndrome. Biochemical and biophysical research communications, 2001. 283(5): p. 1019-1025, Storti, F., et al., Impaired ABCA1/ABCG1-mediated lipid efflux in the mouse retinal pigment epithelium (RPE) leads to retinal degeneration. Elife, 2019. 8: p. e45100.]. To determine if both ABCA proteins work through the lipid handling pathway, the effects of modulating ABCA1 expression on changes the disease phenotype in Stargardt RPE cells was observed. An shRNA knockdown of ABCA1 in ABCA4 iRPE cells was performed and the cells were treated with CC-HS. […] (FIG. 34A-G), In contrast, lipid accumulation defects in Stargardt RPE cells were rescued by ABCA1 overactivation using GW3965 (ABCA1 activator) (FIG. 34 H-N).

[2] = system: AMPK; assay: Phospho-AMPK ELISA in iPSC-RPE of L-ORD patients and unaffected siblings; conditions: for p-AMPK levels: 0% serum, 2 mM AICAR or 500 nM BAM15
Protocol: Thus, in FIG. 16b iPSC-RPE were incubated with recombinant CTRP5 globular form (0.2 μg/mL gCTRP5) for 30 min in the presence (+) and absence (−) of serum to evaluate its role in AMPK signaling.
To better elucidate the ADIPOR1-CTRP5 (receptor-ligand) interaction, […] a ligand dose response curve was performed (in serum free media) by exogenously adding increasing concentrations of recombinant full length CTRP5 (FIG. 16c).
AMPK is a sensitive indicator of the cell energy status and is canonically activated by the levels of AMP or ATP (Hardie and Lin, 2017). Therefore, the AMPK activity (in serum free media) of sibling and patient iPSC-RPE under conditions (increased AMP:ATP ratio) known to stimulate AMPK phosphorylation was characterized (FIG. 16d). iPSC-RPE were incubated in serum deprived media for 5 hours (Park et al., 2009) followed by 30 mins exposure to AICAR (an AMP analogue) or BAM15 (a mitochondrial uncoupler to reduce ATP production).
Metformin treatment consisted of 3 mM metformin added to the apical and basal media for 1½- 2 weeks.

[3] = system: iRPE cells; assay: A23187 cytotoxicity on iRPE cells (CellTitrGlo ATP release)
From the text: It was hypothesized that the loss of epithelial phenotype/RPE dedifferentiation is a key AMD cellular phenotype and easier to set up for a high throughput screen. Drugs that would suppress RPE dedifferentiation and recover the epithelial phenotype in cells might also work to rescue additional AMD cellular endophenotypes. Drug screen was designed using a calcium-ionophore A23187 instead of CC-HS serum, for three reasons: 1) CC-HS lost activity in liquid handler tubing used for medium change, likely because active complement proteins were absorbed on the walls of liquid handler tubes; 2) Similar to A23187, CC-HS treatment of iRPE also led to a defect in intracellular calcium homeostasis.
10 μM concentration of A23187 was selected for the drug screening, because it provided a bigger margin for cell death rescue. A commercially available library of pharmaceutically active compounds (LOPAC) with 1280 drugs was used for the screen at two different concentrations 9.2 μM and 46 μM. […]

[4] = system: iRPE cells; assay: Proteotoxic high throughput screen (LOPAC) and follow up screen: survival of A23187 treated iRPE; conditions: seven-point dose curve; A23187 2.5, 5, 10 μM; two iRPE samples
Protocol: 10 μM concentration of A23187 was selected for the drug screening, because it provided a bigger margin for cell death rescue. […] Drug treatment along with the stressor, 10 μM A23187 were added on to iRPE cells matured in 384-well plates and cell death was scored 48 hours later by ATP release using the CellTitrGlo assay.
To distinguish false positives from the real signal, a follow up screen on all of the 45 drugs using iRPE derived from two different iPSC lines was performed. The follow up screen was performed at three different A23187 concentrations (2.5, 5, 10 μM) and with seven different concentrations of drugs ranging from 10 nM-1 mM (FIG. 13D-F). […] Overall, the HTS screen provided two drugs for testing in the in vitro AMD model.

[5] = system: iRPE cells; assay: Sub-RPE APOE deposits in CC-HS treated iRPE with receptor blockers; conditions: concurrent use of compstatin 10 μM (C3aR1 blocker) and PMX053 10 μM (C5aR1 blocker) in CC-HS
From the text: It was hypothesized that CC-HS triggered AMD cellular phenotypes in iRPE cells are generated by the anaphylatoxin arm of the complement pathway via C3a-C3aR1 and C5a-05aR1 signaling induced intracellular inflammation (Fernandez-Godino and Pierce 2018). RNAseq confirmed the expression of both receptors in iRPE cells with ˜30× higher expression in of C5aR1 as compared to C3aR1 (FIG. 10A). Furthermore, the expression of both receptors increases with CC-HS treatment. Western blot confirmed C3aR1 and C5aR1 receptors localization in the membrane fraction of iRPE cells (FIG. 2A). […] To verify that CC-HS activates C3aR and C5aR signaling in iRPE cells, samples were checked for phosphorylation of AKT and ERK1/2, the two key kinases downstream of C3aR1 and C5aR1 receptors (Hajishengallis and Lambris 2010; Zhu et al 2015 Mol Vis; Busch et al 2017 Front. In Immu.). […] Furthermore, consistent with the predominant apical localization of C3aR1 and C5aR1, apical only treatment of CC-HS caused a 4.5-5×TER drop (p<10^−16), similar to the combined apical/basal treatment of CC-HS. In contrast, basal only treatment of CC-HS resulted only in a 2×TER drop (p<10^−16) (FIG. 2H). To further dissect the role of C5aR1 and C3aR1 signaling in inducing AMD cellular phenotypes in iRPE cells, a depleted sera and receptor blocker strategy was employed. […]

[6] = system: iRPE monolayer; assay: Transepithelial resistance (TER) of CC-HS treated iRPE monolayer; conditions: compstatin 10 μM and PMX053 10 μM used together in CC-HS
From the text: Lastly, it was checked if the drugs rescued mature RPE phenotype and RPE functionality.

[7] = unaffected siblings, 5h 0% serum, 30 min, 25 ug/mL

O=C(O)Cc1cccc(OCCCN(Cc2cccc(C(F)(F)F)c2Cl)CC(c2ccccc2)c2ccccc2)c1 [GW3965]
intra/sub-RPE bodipy-positive lipid deposits [1]: rescued
intra/sub-RPE bodipy-positive lipid deposits ([1]; listed as GW 3965): reduced lipid deposit

NC(=O)c1ncn([C@@H]2O[C@H](CO)[C@@H](O)[C@H]2O)c1N [AICAR]
p-AMPK levels ([2]; L-ORD patient RPE, 30 min): insensitive
p-AMPK levels ([2]; unaffected siblings, 30 min): stimulates further phosphorylation of AMPK; also recorded: further elevation in AMPK levels

CNc1ccc2oc(C[C@H]3O[C@@]4(CC[C@H]3C)O[C@H]([C@H](C)C(=O)c3ccc[nH]3)[C@H](C)C[C@H]4C)nc2c1C(=O)O [A23187]
cell death ([3]; 2.5 μM A23187, 48 hours): 50%
toxicity to iRPE cells ([3]; 96 hours, 2.5, 10, 25 μM A23187): completely toxic; also recorded: cytotoxic

Fc1ccccc1Nc1nc2nonc2nc1Nc1ccccc1F [BAM15]
p-AMPK levels ([2]; L-ORD patient RPE, 30 min): insensitive
p-AMPK levels ([2]; unaffected siblings, 30 min): further stimulates phosphorylation of AMPK; also recorded: further elevation in AMPK levels

COc1cc2ncnc(Nc3cccc(Cl)c3)c2cc1OC [AG-1478]
cytoprotective activity in follow up screen [4]: linear response the seven-point dose curve and reproducibility between two different iRPE samples

CC[C@H](C)[C@H](N)C(=O)N[C@H]1CSSC[C@@H](C(=O)N[C@H](C(N)=O)[C@@H](C)O)NC(=O)[C@H](CCCN=C(N)N)NC(=O)[C@H](Cc2cnc[nH]2)NC(=O)[C@H](Cc2cnc[nH]2)NC(=O)CNC(=O)[C@H](Cc2c[nH]c3ccccc23)NC(=O)[C@H](CC(=O)O)NC(=O)[C@H](CCC(N)=O)NC(=O)[C@H](C(C)C)NC(=O)[C@H](C(C)C)NC1=O [compstatin]
lower sub-RPE APOE deposits compared to CC-HS plus vehicle [5]: 2 ×
higher iRPE monolayer TER compared to CC-HS treated samples [6]: 5 ×

B1: recombinant full length CTRP5: recombinant full length CTRP5 (protein, UniProt Q9BXJ0 1-243, looked up)
chain: MRPLLVLLLLGLAAGSPPLDDNKIPSLCPGHPGLPGTPGHHGSQGLPGRDGRDGRDGAPGAPGEKGEGGRPGLPGPRGDPGPRGEAGPAGPTGPAGECSVPPRSAFSAKRSESRVPPPSDAPLPFDRVLVNEQGHYDAVTGKFTCQVPGVYYFAVHATVYRASLQFDLVKNGESIASFFQFFGGWPKPASLSGGAMVRLEPEDQVWVQVGVGDYIGIYASIKTDSTFSGFLVYSDWHSSPVFA
modifications: full-length
change in p-AMPK levels ([2]; L-ORD patient RPE, similar concentrations, serum free): had no effect on AMPK activity; also recorded: no measurable change
p-AMPK level [2, 7]: 47.89%±0.13
reduction in p-AMPK levels [2, 7]: 50%
